Measurements: US7989649B2, “Tumor imaging compounds” (Emory University, priority 2002, dated 2011)

System: 9 L gliosarcoma tumor
Test: Biodistribution in Fischer rats with intracranial 9 L gliosarcoma tumor
Format: in vivo
Conditions: for Tissue distribution of radioactivity, Blood / Tissue distribution of radioactivity, Bone / Tissue distribution of radioactivity, Heart / Tissue distribution of radioactivity, Kidney / Tissue distribution of radioactivity, Liver / Tissue distribution of radioactivity, Lung / Tissue distribution of radioactivity, Muscle / Tissue distribution of radioactivity, Pancreas / Tissue distribution of radioactivity, Spleen / Tissue distribution of radioactivity, Testis / Tissue distribution of radioactivity, Tumor / Tissue distribution of radioactivity, Brain: tumor-bearing Fischer rats; for Tissue distribution of radioactivity, Brain: normal brain contralateral to tumor
Procedure: Tumor induction and animal preparation. All animal experiments were carried out under humane conditions and were approved by the Institutional Animal Use and Care Committee (IUCAC) at Emory University. Rat 9 L gliosarcoma cells were implanted into the brains of male Fischer rats as described previously [Shoup, T M et al. (1999), J. Nucl. Med. 40:331-338]. Briefly, anesthetized rats placed in a stereotactic head holder were injected with a suspension of 4×10^4 rat 9 L gliosarcoma cells (1×10^7 per mL) in a location 3 mm right of midline and 1 mm anterior to the bregma at a depth of 5 mm deep to the outer table. The injection was performed over the course of 2 minutes, and the needle was withdrawn over the course of 1 minute to minimize the backflow of tumor cells. The burr hole and scalp incision were closed, and the animals were returned to their original colony after recovering from the procedure. Intracranial tumors developed that produced weight loss, apathy and hunched posture in the tumor-bearing rats, and the animals were used at 17-19 days after implantation. Of the 30 animals implanted with tumor cells, 25 developed tumors visible to the naked eye upon dissection and were used in the study.
The tissue distribution of radioactivity was also determined in tumor-bearing Fischer 344 rats following intravenous injection of ˜35 μCi of [^18F]5a or [^18F]5b in 0.3 mL of sterile water. The procedure was similar to that already described for normal rats with the following modifications. The tail vein injections were performed in awake animals using a RTV-190 rodent restraint device (Braintree Scientific) to avoid mortality accompanying anesthesia in the presence of an intracranial mass. The animals were killed at 5 minutes, 60 minutes or 120 minutes post-injection. The same tissues were assayed as in normal rats with the addition of the tumor tissue, and the corresponding region of brain contralateral to the tumor was excised and used for comparison. The uptake in the tumor and contralateral brain at each time point was compared via a two-tailed t-test for paired observations (GraphPad Prism software package).

[1] = 60 min after injection, listed as [^18F]FAMP (5a)
[2] = 120 min after injection, listed as [^18F]FAMP (5a)
[3] = 60 min after injection, listed as [^18F]N-MeFAMP (5b)
[4] = 120 min after injection, listed as [^18F]N-MeFAMP (5b)

CC(N)(CF)C(=O)O (racemic) [[^18F]5a, 2-amino-3-fluoro-2-methylpropanoic acid]
Tissue distribution of radioactivity, Blood (5 min after injection): 0.72 ± 0.05 percent dose per gram | Tissue distribution of radioactivity, Bone (5 min after injection): 0.38 ± 0.04 percent dose per gram | Tissue distribution of radioactivity, Heart (5 min after injection): 0.40 ± 0.04 percent dose per gram | Tissue distribution of radioactivity, Kidney (5 min after injection): 8.66 ± 1.27 percent dose per gram | Tissue distribution of radioactivity, Liver (5 min after injection): 0.77 ± 0.22 percent dose per gram | Tissue distribution of radioactivity, Lung (5 min after injection): 0.84 ± 0.03 percent dose per gram | Tissue distribution of radioactivity, Muscle (5 min after injection): 0.39 ± 0.02 percent dose per gram | Tissue distribution of radioactivity, Pancreas (5 min after injection): 5.31 ± 0.68 percent dose per gram | Tissue distribution of radioactivity, Spleen (5 min after injection): 0.72 ± 0.06 percent dose per gram | Tissue distribution of radioactivity, Testis (5 min after injection): 0.22 ± 0.02 percent dose per gram | Tissue distribution of radioactivity, Tumor (5 min after injection): 0.91 percent dose per gram | Tissue distribution of radioactivity, Tumor (5 min after injection, listed as [^18F]FAMP (5a)): 0.91 ± 0.05 percent dose per gram | Tissue distribution of radioactivity, Blood (60 min after injection): 0.26 ± 0.03 percent dose per gram | Tissue distribution of radioactivity, Bone (60 min after injection): 0.25 ± 0.05 percent dose per gram | Tissue distribution of radioactivity, Heart (60 min after injection): 0.33 ± 0.06 percent dose per gram | Tissue distribution of radioactivity, Kidney (60 min after injection): 6.20 ± 1.45 percent dose per gram | Tissue distribution of radioactivity, Liver (60 min after injection): 0.66 ± 0.16 percent dose per gram | Tissue distribution of radioactivity, Lung (60 min after injection): 0.38 ± 0.04 percent dose per gram | Tissue distribution of radioactivity, Muscle (60 min after injection): 0.31 ± 0.03 percent dose per gram | Tissue distribution of radioactivity, Pancreas (60 min after injection): 2.86 ± 0.34 percent dose per gram | Tissue distribution of radioactivity, Spleen (60 min after injection): 0.55 ± 0.08 percent dose per gram | Tissue distribution of radioactivity, Testis (60 min after injection): 0.14 ± 0.02 percent dose per gram | Tissue distribution of radioactivity, Tumor (60 min after injection): 1.96 percent dose per gram | Tissue distribution of radioactivity, Tumor [1]: 1.96 ± 0.10 percent dose per gram | Tissue distribution of radioactivity, Blood (120 min after injection): 0.16 ± 0.01 percent dose per gram | Tissue distribution of radioactivity, Bone (120 min after injection): 0.16 ± 0.01 percent dose per gram | Tissue distribution of radioactivity, Heart (120 min after injection): 0.22 ± 0.02 percent dose per gram | Tissue distribution of radioactivity, Kidney (120 min after injection): 3.64 ± 0.26 percent dose per gram | Tissue distribution of radioactivity, Liver (120 min after injection): 0.25 ± 0.02 percent dose per gram | Tissue distribution of radioactivity, Lung (120 min after injection): 0.24 ± 0.03 percent dose per gram | Tissue distribution of radioactivity, Muscle (120 min after injection): 0.21 ± 0.01 percent dose per gram | Tissue distribution of radioactivity, Pancreas (120 min after injection): 1.42 ± 0.17 percent dose per gram | Tissue distribution of radioactivity, Spleen (120 min after injection): 0.32 ± 0.02 percent dose per gram | Tissue distribution of radioactivity, Testis (120 min after injection): 0.11 ± 0.003 percent dose per gram | Tissue distribution of radioactivity, Tumor (120 min after injection): 1.87 percent dose per gram | Tissue distribution of radioactivity, Tumor [2]: 1.87 ± 0.2 percent dose per gram | Tissue distribution of radioactivity, Brain (5 min after injection): 0.035 ± 0.002 percent dose per gram | Tissue distribution of radioactivity, Brain (60 min after injection): 0.054 percent dose per gram | Tissue distribution of radioactivity, Brain [1]: 0.054 ± 0.01 percent dose per gram | Tissue distribution of radioactivity, Brain (120 min after injection): 0.050 percent dose per gram | Tissue distribution of radioactivity, Brain [2]: 0.050 ± 0.004 percent dose per gram | uptake in normal brain tissue contralateral to the tumor (tumor-bearing rats, each time point (5, 60, 120 minutes)): approximately 0.05 % ID/g

CNC(C)(CF)C(=O)O (racemic) [[^18F]5b, 3-fluoro-2-methyl-2-(methylamino)propanoic acid]
Tissue distribution of radioactivity, Blood (5 min after injection): 0.69 ± 0.04 percent dose per gram | Tissue distribution of radioactivity, Bone (5 min after injection): 0.33 ± 0.04 percent dose per gram | Tissue distribution of radioactivity, Heart (5 min after injection): 0.34 ± 0.02 percent dose per gram | Tissue distribution of radioactivity, Kidney (5 min after injection): 9.33 ± 0.36 percent dose per gram | Tissue distribution of radioactivity, Liver (5 min after injection): 0.94 ± 0.12 percent dose per gram | Tissue distribution of radioactivity, Lung (5 min after injection): 0.61 ± 0.04 percent dose per gram | Tissue distribution of radioactivity, Muscle (5 min after injection): 0.22 ± 0.011 percent dose per gram | Tissue distribution of radioactivity, Pancreas (5 min after injection): 2.95 ± 0.58 percent dose per gram | Tissue distribution of radioactivity, Spleen (5 min after injection): 0.47 ± 0.04 percent dose per gram | Tissue distribution of radioactivity, Testis (5 min after injection): 0.19 ± 0.008 percent dose per gram | Tissue distribution of radioactivity, Tumor (5 min after injection): 1.29 percent dose per gram | Tissue distribution of radioactivity, Tumor (5 min after injection, listed as [^18F]N-MeFAMP (5b)): 1.29 ± 0.28 percent dose per gram | Tissue distribution of radioactivity, Blood (60 min after injection): 0.17 ± 0.02 percent dose per gram | Tissue distribution of radioactivity, Bone (60 min after injection): 0.23 ± 0.04 percent dose per gram | Tissue distribution of radioactivity, Heart (60 min after injection): 0.25 ± 0.03 percent dose per gram | Tissue distribution of radioactivity, Kidney (60 min after injection): 2.79 ± 0.31 percent dose per gram | Tissue distribution of radioactivity, Liver (60 min after injection): 0.85 ± 0.17 percent dose per gram | Tissue distribution of radioactivity, Lung (60 min after injection): 0.26 ± 0.03 percent dose per gram | Tissue distribution of radioactivity, Muscle (60 min after injection): 0.19 ± 0.02 percent dose per gram | Tissue distribution of radioactivity, Pancreas (60 min after injection): 2.42 ± 0.27 percent dose per gram | Tissue distribution of radioactivity, Spleen (60 min after injection): 0.45 ± 0.06 percent dose per gram | Tissue distribution of radioactivity, Testis (60 min after injection): 0.08 ± 0.008 percent dose per gram | Tissue distribution of radioactivity, Tumor (60 min after injection): 2.28 percent dose per gram | Tissue distribution of radioactivity, Tumor [3]: 2.28 ± 0.16 percent dose per gram | Tissue distribution of radioactivity, Blood (120 min after injection): 0.10 ± 0.007 percent dose per gram | Tissue distribution of radioactivity, Bone (120 min after injection): 0.19 ± 0.02 percent dose per gram | Tissue distribution of radioactivity, Heart (120 min after injection): 0.19 ± 0.02 percent dose per gram | Tissue distribution of radioactivity, Kidney (120 min after injection): 1.59 ± 0.19 percent dose per gram | Tissue distribution of radioactivity, Liver (120 min after injection): 0.41 ± 0.06 percent dose per gram | Tissue distribution of radioactivity, Lung (120 min after injection): 0.19 ± 0.011 percent dose per gram | Tissue distribution of radioactivity, Muscle (120 min after injection): 0.16 ± 0.012 percent dose per gram | Tissue distribution of radioactivity, Pancreas (120 min after injection): 1.74 ± 0.24 percent dose per gram | Tissue distribution of radioactivity, Spleen (120 min after injection): 0.40 ± 0.02 percent dose per gram | Tissue distribution of radioactivity, Testis (120 min after injection): 0.08 ± 0.005 percent dose per gram | Tissue distribution of radioactivity, Tumor (120 min after injection): 1.94 percent dose per gram | Tissue distribution of radioactivity, Tumor [4]: 1.94 ± 0.12 percent dose per gram | Tissue distribution of radioactivity, Brain (5 min after injection): 0.032 ± 0.002 percent dose per gram | Tissue distribution of radioactivity, Brain (60 min after injection): 0.022 percent dose per gram | Tissue distribution of radioactivity, Brain [3]: 0.022 ± 0.006 percent dose per gram | Tissue distribution of radioactivity, Brain (120 min after injection): 0.020 percent dose per gram | Tissue distribution of radioactivity, Brain [4]: 0.020 ± 0.005 percent dose per gram
